Earlier results in PMC6101361 (PLoS ONE, 2018).

Test system: anti-ß1EC2-induced heart failure in rats
Details: daily applications; ref [20]
Excerpt: The observed trend to ...

CC(C)NCC(O)COc1ccc(COCCOC(C)C)cc1 (stereo not shown) [bisoprolol]
effect on anti-ß1EC2–induced heart failure: only delayed progression of anti-ß1EC2–induced heart failure
